Data on ten sequences can be found in patent US8852604B2, “Multiepitope vaccine for Her2/neu-associated cancers” (Pevion Biotech AG, priority 2009, dated 2014).

Where two headings read alike, the source gives them in different places. No end group written: not given here.

On series [1], the source says:
The polydispersity of a virosomal preparation is an indication for the homogeneity of the particle size in an aqueous solution, with lower polydispersity being associated with a greater degree of homogeneity of size over all virosomes present in the composition.

Series [2] in a line: physchem.
The nature of series [3]: physchem. This is another data set of the same source.

Turning to PESFDGDPASNTAPLQPGGGGGC [PEV601], the “Stabilty(I)IRIV” value in series [1] was “acceptable”. Besides, the solubility in series [2] is 2 to 3 mg/mL.

Turning to “PESFDGDPASNTAPLQPRVLQGLPREYVNARHSLPYMPIWKFPDEEGAC [PEV604]”, the solubility is 0.5 to 1.5 mg/mL in series [3] and 0.8 mg/mL in series [2]. For the same sequence, in series [1], the “Stabilty(I)IRIV” value is “limited”.

On to “PESFDGDPASNTAPLQPRVLQGLPREYVNARHSYMPIWKFPDEEGAC [PEV605, PESFDGDPASNTAPLQP RVLQGLPREYVNARHS YMPIWKFPDEEGAC]”, for which the “Stabilty(I)IRIV” value in series [1] is reported as “limited”. The same sequence came in with a solubility in series [2] of 0.8 mg/mL.

Consider “PESFDGDPASNTAPLQPYMPIWKFPDEEGASRVLQGLPREYVNARHC [PEV606, PESFDGDPASNTAPLQP YMPIWKFPDEEGAS RVLQGLPREYVNARHC]”, for which the “Stabilty(I)IRIV” value in series [1] is “limited”. In series [2], the concentration in solution (solubility) was 0.8 mg/mL.

For the sequence “RVLQGLPREYVNARHC [PEV602, RVLQGLPREYVNARHC]”, the “Stabilty(I)IRIV” value in series [1] was “limited”. In addition, in series [2], the concentration in solution (solubility) came to 0.5 mg/mL.

As for “RVLQGLPREYVNARHSPESFDGDPASNTAPLQPYMPIWKFPDEEGAC [PEV607, RVLQGLPREYVNARHS PESFDGDPASNTAPLQP YMPIWKFPDEEGAC]”, the solubility in series [3] is 0.5 to 1.5 mg/mL; in series [2] it was 0.8 mg/mL. Further, the “Stabilty(I)IRIV” value in series [1] is on record as “limited”.

In the case of “RVLQGLPREYVNARHSYMPIWKFPDEEGASPESFDGDPASNTAPLQPC [PEV608, RVLQGLPREYVNARHS YMPIWKFPDEEGAS PESFDGDPASNTAPLQPC]”, in series [1], the “Stabilty(I)IRIV” value is “limited”. Besides, the concentration in solution in series [2] (solubility) was 0.8 mg/mL.

For the sequence YMPIWKFPDEEGAC [PEV603, YMPIWKFPDEEGAC], the values for the solubility in series [3] and in series [2] were 2 to 3 mg/mL and < 0.2 mg/mL, respectively. In addition, the “Stabilty(I)IRIV” value in series [1] was “limited”.

“YMPIWKFPDEEGASPESFDGDPASNTAPLQPRVLQGLPREYVNARHC [PEV609, YMPIWKFPDEEGAS PESFDGDPASNTAPLQP RVLQGLPREYVNARHC]”: the “Stabilty(I)IRIV” value in series [1] is “limited”. Moreover, the solubility in series [2] worked out at 0.8 mg/mL.

In the case of “YMPIWKFPDEEGASRVLQGLPREYVNARHSPESFDGDPASNTAPLQPC [PEV610, YMPIWKFPDEEGAS RVLQGLPREYVNARHS PESFDGDPASNTAPLQPC]”, in series [1], the “Stabilty(I)IRIV” value is listed as “limited”. For the same sequence, in series [2], the solubility was 0.8 mg/mL.

One may read the solubility as how much of the substance goes into solution per volume. Read a high solubility as a readily soluble substance.
